Measured values as given in ChEMBL document CHEMBL1201862, “PubChem BioAssay data set” (2004).
Calls of active or inactive are those of the source.

Legend:
[1] = target: ATP-dependent molecular chaperone HSP82 (Candida albicans (strain WO-1) (Yeast), UniProt C4YTQ8); assay: steroid-induced GRE reporter decrease in yeast – S. cerevisiae, luminescence, Hsp90 inhibitor project, dose response (AID 2400); assay type: functional, cell-based;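 also: beta-galactosidase luminescence from glucocorticoid response element reporter as proxy for Hsp90 function; inhibitor potency where signal loss means Hsp90 inhibition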
[2] = fluconazole-exposed Candida albicans growth modulators – fluorescence, retest, confirmation (AID 2467); assay type: functional, cell-based
Protein RecA = target: T1, Protein RecA (Mycobacterium tuberculosis, UniProt P9WHJ3); assay: Fluorescence Cell-Free Homogeneous Dose Retest to Identify Inhibitors of RecA-Intein Splicing Activity. [Related pubchem assays (depositor defined):AID2097, AID2223, AID489010, AID492950]; assay type: functional
T1 sequence (P9WHJ3 whole entry): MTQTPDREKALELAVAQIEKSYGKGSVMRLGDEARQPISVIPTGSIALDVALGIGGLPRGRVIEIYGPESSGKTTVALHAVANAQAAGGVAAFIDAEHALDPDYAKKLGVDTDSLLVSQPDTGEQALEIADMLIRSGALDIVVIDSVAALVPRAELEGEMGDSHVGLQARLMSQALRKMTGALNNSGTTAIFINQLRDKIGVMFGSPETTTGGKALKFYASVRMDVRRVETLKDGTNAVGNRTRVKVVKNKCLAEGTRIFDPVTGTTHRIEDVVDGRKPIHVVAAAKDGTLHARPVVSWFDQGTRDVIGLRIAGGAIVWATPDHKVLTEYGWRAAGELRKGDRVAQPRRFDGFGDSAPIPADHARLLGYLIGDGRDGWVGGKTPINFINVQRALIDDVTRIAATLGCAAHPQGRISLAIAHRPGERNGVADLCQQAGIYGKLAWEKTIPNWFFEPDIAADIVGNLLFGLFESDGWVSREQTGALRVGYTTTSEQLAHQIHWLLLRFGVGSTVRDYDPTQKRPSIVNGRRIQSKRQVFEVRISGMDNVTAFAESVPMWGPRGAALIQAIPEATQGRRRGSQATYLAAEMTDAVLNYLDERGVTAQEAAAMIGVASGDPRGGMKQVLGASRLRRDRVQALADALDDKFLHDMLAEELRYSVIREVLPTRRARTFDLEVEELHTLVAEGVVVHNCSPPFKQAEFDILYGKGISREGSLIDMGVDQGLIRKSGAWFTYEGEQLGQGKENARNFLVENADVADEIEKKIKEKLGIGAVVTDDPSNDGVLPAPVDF

[3] = alpha-synuclein stem-loop luciferase translation blockers – H4 neuroglioma cells, luminescence, confirmation (AID 1988); assay type: functional, cell-based
[4] = luciferase reporter signal suppression in cells – H4 neuroglioma cells, luminescence, dose response (AID 1990); assay type: functional, cell-based
[5] = non-specific 3'UTR reporter inhibition in Clone20-Shn3RL – cell-based, Renilla luciferase, cherry-picked, counter-screen for Shn3 inhibitor project, dose response (AID 624133); assay type: functional
HeLa = assay: Cytotoxicity counterscreen assay for transcriptional activators of heat shock protein 70 (Hsp70). [Related pubchem assays: 1203, 1252 ]; assay type: functional; conditions: Homo sapiens;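 also: cells exposed to compound for 16 hours before readout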
[6] = target: Intestinal-type alkaline phosphatase (Homo sapiens, UniProt P09923); assay: human intestinal alkaline phosphatase activators, dose response, biochemical, luminescence, uHTS hits (AID 463120); assay type: functional
Sequence of Intestinal-type alkaline phosphatase (P09923 whole entry): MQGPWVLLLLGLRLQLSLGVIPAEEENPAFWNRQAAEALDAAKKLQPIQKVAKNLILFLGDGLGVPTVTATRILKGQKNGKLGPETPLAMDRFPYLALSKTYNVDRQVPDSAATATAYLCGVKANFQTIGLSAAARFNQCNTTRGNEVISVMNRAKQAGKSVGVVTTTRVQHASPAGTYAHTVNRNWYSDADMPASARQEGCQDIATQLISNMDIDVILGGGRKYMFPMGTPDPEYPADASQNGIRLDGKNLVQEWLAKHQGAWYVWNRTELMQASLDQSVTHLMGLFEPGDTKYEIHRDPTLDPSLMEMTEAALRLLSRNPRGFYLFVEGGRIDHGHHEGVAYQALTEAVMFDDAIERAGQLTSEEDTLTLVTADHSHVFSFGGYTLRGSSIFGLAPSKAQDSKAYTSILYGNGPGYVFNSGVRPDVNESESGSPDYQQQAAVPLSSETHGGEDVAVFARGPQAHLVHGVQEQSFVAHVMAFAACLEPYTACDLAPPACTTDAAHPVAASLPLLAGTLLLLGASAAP

[7] = target: T2, Ubiquitin-conjugating enzyme E2 N (Homo sapiens, UniProt P61088); assay type: functional;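 also: Dose-response confirmation in a TR-FRET assay detecting UBC13-driven polyubiquitin chain formation, inhibition measured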
T2 sequence (P61088 whole entry): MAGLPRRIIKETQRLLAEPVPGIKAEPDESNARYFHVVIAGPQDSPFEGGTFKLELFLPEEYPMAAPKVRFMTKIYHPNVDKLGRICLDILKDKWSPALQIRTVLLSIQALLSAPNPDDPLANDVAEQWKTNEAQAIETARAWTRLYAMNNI

[8] = target: Casein kinase I isoform delta (Homo sapiens, UniProt P48730); assay type: functional;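 also: measured as one member (CSNK1D) of a kinome panel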
Sequence of Casein kinase I isoform delta (P48730 whole entry, canonical isoform): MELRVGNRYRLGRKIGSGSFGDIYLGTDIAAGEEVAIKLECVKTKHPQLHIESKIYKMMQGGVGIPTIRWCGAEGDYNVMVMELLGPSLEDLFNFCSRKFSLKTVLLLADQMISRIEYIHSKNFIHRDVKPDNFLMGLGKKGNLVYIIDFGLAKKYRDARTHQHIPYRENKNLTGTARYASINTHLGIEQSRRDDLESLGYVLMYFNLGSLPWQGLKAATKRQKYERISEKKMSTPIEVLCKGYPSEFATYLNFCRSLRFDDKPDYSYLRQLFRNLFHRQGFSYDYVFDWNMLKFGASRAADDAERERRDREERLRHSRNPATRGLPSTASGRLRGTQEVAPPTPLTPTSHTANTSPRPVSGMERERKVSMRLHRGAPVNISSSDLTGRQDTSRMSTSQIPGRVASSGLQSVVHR

SRSF protein kinase 1 = SRSF protein kinase 1 (Homo sapiens, UniProt Q96SB4); assay type: functional;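 also: measured as one member of a kinome-wide kinase profiling panel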
[9] = target: Protein kinase C zeta type (Homo sapiens, UniProt Q05513); assay type: functional;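 also: measured as one member of a broad kinase profiling panel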
Sequence of Protein kinase C zeta type (Q05513 whole entry): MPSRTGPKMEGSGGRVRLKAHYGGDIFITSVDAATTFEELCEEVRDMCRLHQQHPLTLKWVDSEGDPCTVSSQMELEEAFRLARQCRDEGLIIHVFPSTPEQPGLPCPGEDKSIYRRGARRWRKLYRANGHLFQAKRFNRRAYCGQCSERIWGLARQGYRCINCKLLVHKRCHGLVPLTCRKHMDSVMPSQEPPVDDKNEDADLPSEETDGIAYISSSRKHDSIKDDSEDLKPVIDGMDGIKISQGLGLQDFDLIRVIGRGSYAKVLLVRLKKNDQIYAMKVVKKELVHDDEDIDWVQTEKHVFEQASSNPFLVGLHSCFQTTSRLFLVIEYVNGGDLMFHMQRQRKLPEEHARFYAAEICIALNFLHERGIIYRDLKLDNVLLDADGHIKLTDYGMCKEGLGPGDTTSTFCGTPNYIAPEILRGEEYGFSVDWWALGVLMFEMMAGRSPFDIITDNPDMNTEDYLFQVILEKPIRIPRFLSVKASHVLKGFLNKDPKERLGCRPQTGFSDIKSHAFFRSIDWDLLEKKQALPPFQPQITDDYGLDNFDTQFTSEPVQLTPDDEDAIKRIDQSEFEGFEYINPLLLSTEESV

[10] = target: Death-associated protein kinase 3 (Homo sapiens, UniProt O43293); assay type: functional;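 also: measured as one member of a kinome-wide profiling panel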
Sequence of Death-associated protein kinase 3 (O43293 whole entry): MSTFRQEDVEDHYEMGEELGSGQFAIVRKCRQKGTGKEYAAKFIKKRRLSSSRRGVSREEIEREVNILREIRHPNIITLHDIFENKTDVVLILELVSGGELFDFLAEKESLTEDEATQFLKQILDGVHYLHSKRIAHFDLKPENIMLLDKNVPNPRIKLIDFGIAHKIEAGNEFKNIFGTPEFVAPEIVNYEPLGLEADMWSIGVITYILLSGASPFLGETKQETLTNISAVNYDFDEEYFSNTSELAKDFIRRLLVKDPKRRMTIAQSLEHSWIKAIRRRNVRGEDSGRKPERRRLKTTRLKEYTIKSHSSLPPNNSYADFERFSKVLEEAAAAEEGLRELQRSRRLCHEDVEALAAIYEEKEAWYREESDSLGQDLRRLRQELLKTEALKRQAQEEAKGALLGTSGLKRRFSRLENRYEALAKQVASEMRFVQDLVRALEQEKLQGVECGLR

[11] = target: Dual specificity tyrosine-phosphorylation-regulated kinase 4 (Homo sapiens, UniProt Q9NR20); assay type: functional
[12] = target: 5'-AMP-activated protein kinase catalytic subunit alpha-1 (Homo sapiens, UniProt Q13131); assay type: functional
[13] = target: Receptor-type tyrosine-protein kinase FLT3 (Homo sapiens, UniProt P36888); assay type: functional;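 also: FLT3 was tested as one member of a kinome-wide kinase panel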
Sequence of Receptor-type tyrosine-protein kinase FLT3 (P36888 whole entry): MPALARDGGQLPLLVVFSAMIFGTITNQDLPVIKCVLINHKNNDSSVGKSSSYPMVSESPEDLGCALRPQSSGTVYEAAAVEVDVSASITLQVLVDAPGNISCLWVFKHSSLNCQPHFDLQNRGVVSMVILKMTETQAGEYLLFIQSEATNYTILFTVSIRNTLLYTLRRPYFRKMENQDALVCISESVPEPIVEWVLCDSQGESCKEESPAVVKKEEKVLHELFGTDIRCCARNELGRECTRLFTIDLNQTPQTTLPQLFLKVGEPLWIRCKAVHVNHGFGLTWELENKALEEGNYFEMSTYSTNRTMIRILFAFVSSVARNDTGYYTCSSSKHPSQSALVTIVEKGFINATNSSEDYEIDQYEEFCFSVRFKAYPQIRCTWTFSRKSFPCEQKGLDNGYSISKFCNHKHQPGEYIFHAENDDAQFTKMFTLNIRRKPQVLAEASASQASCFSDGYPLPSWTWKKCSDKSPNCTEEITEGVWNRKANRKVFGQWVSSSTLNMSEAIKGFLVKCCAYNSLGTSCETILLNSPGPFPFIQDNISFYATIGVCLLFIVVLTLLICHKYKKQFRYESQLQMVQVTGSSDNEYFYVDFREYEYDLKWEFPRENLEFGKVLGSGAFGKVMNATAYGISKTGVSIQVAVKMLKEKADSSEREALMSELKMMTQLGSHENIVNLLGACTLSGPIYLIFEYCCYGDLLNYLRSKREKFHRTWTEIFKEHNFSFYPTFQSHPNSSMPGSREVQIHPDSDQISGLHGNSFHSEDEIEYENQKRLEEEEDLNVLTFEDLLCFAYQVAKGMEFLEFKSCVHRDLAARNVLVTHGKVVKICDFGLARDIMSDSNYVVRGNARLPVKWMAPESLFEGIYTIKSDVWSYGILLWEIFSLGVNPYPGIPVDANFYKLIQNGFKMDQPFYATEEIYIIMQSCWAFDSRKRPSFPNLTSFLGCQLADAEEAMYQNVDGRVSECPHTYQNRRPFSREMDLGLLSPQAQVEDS

[14] = target: Glycogen synthase kinase-3 beta (Homo sapiens, UniProt P49841); assay type: functional;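 also: value comes from a broad kinome profiling panel, with GSK3B as the panel member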
Sequence of Glycogen synthase kinase-3 beta (P49841 whole entry): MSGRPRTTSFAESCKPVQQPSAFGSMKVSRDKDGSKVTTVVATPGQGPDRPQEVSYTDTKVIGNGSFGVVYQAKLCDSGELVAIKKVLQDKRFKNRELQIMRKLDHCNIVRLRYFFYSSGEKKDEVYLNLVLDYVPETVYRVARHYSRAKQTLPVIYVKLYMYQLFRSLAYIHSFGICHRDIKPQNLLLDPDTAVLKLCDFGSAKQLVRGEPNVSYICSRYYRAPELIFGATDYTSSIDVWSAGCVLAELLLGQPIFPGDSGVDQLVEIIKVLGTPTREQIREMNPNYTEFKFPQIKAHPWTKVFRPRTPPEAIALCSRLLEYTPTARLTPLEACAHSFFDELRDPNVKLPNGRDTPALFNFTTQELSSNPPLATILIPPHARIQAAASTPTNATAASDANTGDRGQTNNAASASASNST

[15] = target: Macrophage-stimulating protein receptor (Homo sapiens, UniProt Q04912); assay: Navigating the Kinome. Panel member name: MST1R; assay type: functional
Ephrin type-A receptor 2 = Ephrin type-A receptor 2 (Homo sapiens, UniProt P29317); assay type: functional;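 also: EPHA2 tested as one member of a kinome-wide kinase panel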
[16] = target: MAP kinase-interacting serine/threonine-protein kinase 2 (Homo sapiens, UniProt Q9HBH9); assay type: functional
Sequence of MAP kinase-interacting serine/threonine-protein kinase 2 (Q9HBH9 whole entry, canonical isoform): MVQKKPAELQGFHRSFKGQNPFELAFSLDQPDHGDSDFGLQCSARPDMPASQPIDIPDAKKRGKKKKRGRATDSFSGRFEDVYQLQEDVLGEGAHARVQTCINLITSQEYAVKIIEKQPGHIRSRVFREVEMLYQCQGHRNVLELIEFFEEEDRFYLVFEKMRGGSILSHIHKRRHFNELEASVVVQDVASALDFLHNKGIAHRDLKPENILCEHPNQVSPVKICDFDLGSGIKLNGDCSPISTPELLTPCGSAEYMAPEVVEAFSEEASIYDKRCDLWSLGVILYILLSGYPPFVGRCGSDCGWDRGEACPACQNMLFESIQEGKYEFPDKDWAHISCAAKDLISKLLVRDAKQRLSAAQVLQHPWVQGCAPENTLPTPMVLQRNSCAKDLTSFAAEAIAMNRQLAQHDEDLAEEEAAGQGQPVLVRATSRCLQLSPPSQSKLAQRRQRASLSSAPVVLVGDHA

[17] = target: Casein kinase I isoform gamma-1 (Homo sapiens, UniProt Q9HCP0); assay type: functional;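 also: measured as the CSNK1G1 member of a kinome profiling panel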
Sequence of Casein kinase I isoform gamma-1 (Q9HCP0 whole entry, canonical isoform): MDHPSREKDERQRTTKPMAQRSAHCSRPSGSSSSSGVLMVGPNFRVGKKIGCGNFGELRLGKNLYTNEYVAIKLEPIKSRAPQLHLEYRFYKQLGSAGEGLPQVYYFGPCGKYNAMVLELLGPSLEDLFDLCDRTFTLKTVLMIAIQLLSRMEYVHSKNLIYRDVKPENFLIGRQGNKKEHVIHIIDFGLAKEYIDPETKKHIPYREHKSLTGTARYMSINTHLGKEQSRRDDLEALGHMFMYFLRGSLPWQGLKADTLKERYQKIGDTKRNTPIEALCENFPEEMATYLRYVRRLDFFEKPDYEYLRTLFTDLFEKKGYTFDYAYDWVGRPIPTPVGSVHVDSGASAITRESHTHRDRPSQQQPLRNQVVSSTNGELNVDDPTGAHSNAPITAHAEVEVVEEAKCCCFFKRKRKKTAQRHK

Aurora kinase A = Aurora kinase A (Homo sapiens, UniProt O14965); assay type: functional;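 also: value from the Navigating the Kinome kinase panel profiling, panel entry STK6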
[18] = target: Dual specificity mitogen-activated protein kinase kinase 2 (Homo sapiens, UniProt P36507); assay: Navigating the Kinome. Panel member name: MAP2K2; assay type: functional
[19] = target: Dual specificity protein kinase CLK2 (Homo sapiens, UniProt P49760); assay type: functional
[20] = target: Serine/threonine-protein kinase D3 (Homo sapiens, UniProt O94806); assay type: functional;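 also: determined within a kinase panel screen, with PRKCN as the panel member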
[21] = target: Calcium/calmodulin-dependent protein kinase type 1 (Homo sapiens, UniProt Q14012); assay type: functional
[22] = target: Tyrosine-protein kinase FRK (Homo sapiens, UniProt P42685); assay type: functional;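 also: FRK tested as one member of a kinome panel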
[23] = target: Macrophage colony-stimulating factor 1 receptor (Homo sapiens, UniProt P07333); assay type: functional;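 also: value comes from the Navigating the Kinome screening panel, CSF1R member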
[24] = target: MAP kinase-activated protein kinase 2 (Homo sapiens, UniProt P49137); assay type: functional;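 also: measured as one member of a kinome-wide kinase panel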
[25] = target: Serine/threonine-protein kinase Chk2 (Homo sapiens, UniProt O96017); assay type: functional;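 also: CHEK2 entry within a kinome-wide screening panel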
Sequence of Serine/threonine-protein kinase Chk2 (O96017 whole entry): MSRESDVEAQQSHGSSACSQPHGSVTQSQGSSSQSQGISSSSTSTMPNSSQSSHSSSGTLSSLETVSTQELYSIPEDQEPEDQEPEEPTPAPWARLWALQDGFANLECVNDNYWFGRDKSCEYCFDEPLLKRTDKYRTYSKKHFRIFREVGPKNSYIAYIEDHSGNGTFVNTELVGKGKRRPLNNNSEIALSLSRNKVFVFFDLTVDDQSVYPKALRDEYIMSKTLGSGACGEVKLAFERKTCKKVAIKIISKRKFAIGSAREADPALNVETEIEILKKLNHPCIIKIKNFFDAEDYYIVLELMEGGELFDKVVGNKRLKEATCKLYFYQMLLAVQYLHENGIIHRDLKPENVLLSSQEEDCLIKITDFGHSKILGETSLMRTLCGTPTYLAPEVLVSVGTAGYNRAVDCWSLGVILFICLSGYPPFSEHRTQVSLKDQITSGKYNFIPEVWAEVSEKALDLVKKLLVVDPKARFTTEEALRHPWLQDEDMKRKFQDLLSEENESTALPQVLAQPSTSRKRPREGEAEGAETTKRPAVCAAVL

[26] = target: Bifunctional protein GlmU (Mycobacterium tuberculosis, UniProt P9WMN3); assay: Inhibitors of Mycobacterial Glucosamine-1-phosphate acetyl transferase (GlmU). Secondary screen.; design: species or system Mycobacterium tuberculosis H37Rv

CN(C)S(=O)(=O)Oc1cccc(C(=O)Nc2ccc(Cl)c(Cl)c2)c1
active: EC50 [1] 18.2 µM | EC50 [2] 0.574 µM

COC(=O)C1CN(C#N)N(c2ccc(Cl)cc2)C12c1ccccc1-c1ccccc12 (stereo unspecified)
active: EC50 (Protein RecA) 7 µM | EC50 [3] 7.38 µM | AC50 [5] 3 µM | CC50 (HeLa) 3.02 µM
> 120 µM (not active): EC50 [4]

O=C(NN1C(=O)CSC1=S)C(=O)NN1C(=O)CSC1=S
inactive: IC50 [7] > 20 µM
active: EC50 [6] 9.21 µM

Nc1noc2cccc(-c3cccc(O)c3)c12
inactive: Ki [9] > 7.94 µM | Ki [10] > 25.1 µM | Ki [11] > 7.94 µM | Ki [12] > 25.1 µM | Ki [14] > 50.1 µM | Ki (Ephrin type-A receptor 2) > 3.16 µM | Ki [17] > 6.31 µM | Ki (Aurora kinase A) > 31.6 µM | Ki [19] > 20 µM | Ki [20] > 10 µM | Ki [21] > 5.01 µM | Ki [23] > 5.01 µM | Ki [24] > 7.94 µM | Ki [25] > 1.58 µM
active: Ki [8] 6.31 µM | Ki (SRSF protein kinase 1) 7.94 µM | Ki [13] 10 µM | Ki [15] 20 µM | Ki [16] 1 µM | Ki [18] 7.94 µM | Ki [22] 0.0398 µM

O=C1NC(=S)S/C1=C\C=C\c1ccc([N+](=O)[O-])o1
active: IC50 [26] 19.1 µM
